Legend:
Assay type in all cases: cell-based, human
MDA-MB-231 cells [1] = assay: In vitro invasion assay (BioCoat Matrigel Invasion Chambers); settings: MβCD 4 mM, calyculin A 0.5 nM; drugs added in both sides; 24 h; FIG. 10b
Experimental: In vitro invasion and migration assays. For invasion and migration assays, we used BioCoat Matrigel Invasion Chambers (Corning) and 8.0 μm PET trans-migration inserts (Corning), respectively. In the invasion assay, 1×10^5 cells were suspended in serum-free medium and seeded on top of the chamber's membrane, in which medium containing serum was placed at the bottom. For MβCD or calyculin A treatment, drugs were added in both sides. Low-invasive epithelial (MCF10A, AU565, and MCF7) cells and MDA-MB-231 cells were incubated for 36 h and 24 h, respectively, and then fixed in 4% formaldehyde. Invaded cells were imaged using a BZ-X700 microscope (Keyence) with 10× magnification and counted. In the migration assay, 5×10^4 cells were seeded on top of the PET membrane, incubated for 24 h, and analyzed as described for the invasion assay. For the quantification of invasive structures grown in 3D on-top culture (FIGS. 5a and b), the elongated mesenchymal-like and rounded morphologies were defined as invasive and non-invasive phenotypes, respectively, and quantified.

[2] = tested on: GFP-FBP17 in MDA-MB-231 cells; assay: Confocal quantification of GFP-FBP17 puncta at the plasma membrane; settings: FIG. 5g, 11c, 11e
Experimental: Confocal microscopy, live-cell imaging, and image analysis. For immunofluorescence analysis, cells were fixed with 4% formaldehyde in phosphate-buffered saline (PBS) for 10 min and permeabilized with 0.2% Triton X-100 for 10 min in PBS. Cells were blocked with 5% goat serum (Sigma-Aldrich) in PBS for 1 h and were incubated with primary antibodies for at least 3 h. Then, cells were incubated with secondary antibodies for 1 h. For membrane visualization, Alexa Fluor™ 350 conjugated wheat germ agglutinin (WGA) (Thermo Scientific) was incubated with fixed cells for 30 min before permeabilization. For visualization of F-actin, Alexa Fluor™ 568 Phalloidin (Thermo Scientific) was incubated with fixed cells for 30 min. Fluorescence images were captured using a confocal microscopy system (FluoView 1000-D; Olympus) equipped with 405-, 473-, and 568-nm diode lasers through an objective lens (60× oil immersion objective, NA=1.35). […] The aspect ratio was determined as a ratio of the major cell axis length to minor cell axis length, which was calculated automatically by Image J. We observed that elongated cells typically have an aspect ratio of 5-8, whereas that of amoeboid cells is 2-3. […] The mean intensity of pERM or F-actin all along the membrane regions was then calculated and divided by their mean intensities throughout the cytosol (avoiding the nucleus). […]

MDA-MB-231 cells [3] = assay: Tether force measurement with optical tweezers and estimation of PM tension; settings: MβCD 4 mM vs mock (FIG. 10c), MA-ezrin expression vs parental (FIG. 4a)
Experimental: Tether force measurement with optical tweezers and the estimation of PM tension. Tether force measurements were performed with an optical tweezers system (NanoTracker™ 2, JPK Instruments) equipped with an infrared (IR) laser source (3 W, 1064 nm) on an Olympus IX-73 inverted microscope with a 60×(numerical aperture=1.2) water immersion objective (Olympus). Silica beads (1.5 μm diameter, Polysciences) were incubated with concanavalin A (Sigma-Aldrich) at 1 mg/ml for 1 h. Cells were plated onto glass-bottom dishes (WPI). Coated beads were added to the cell culture medium supplemented with 25 mM HEPES (pH 7.5), and experiments were performed at 37° C. Tether force (F) can be calculated using Hooke's law: F=kΔx, where k is the stiffness of the trap and Δx is the displacement of the bead from the trap center. […] The displacement of the bead in the trap center (Δx) was determined by a quadrant photodiode detector with high precision (the resolution less than 1 nm). […] To compare PM tension between non-motile epithelial cells and malignant cells, we measured the tethering force on the lateral sides of cells. […]
PM tension can be estimated with the following formula: T=Ftether^2/8Bπ^2, where T is the apparent plasma membrane tension (PM tension), Ftether is the tether force measured by optical tweezers, and B is the bending stiffness of the membrane. […]

Row | Compound | invasive ability (drug-treated cells that invaded through Matrigel) (MDA-MB-231 cells [1]) | recruitment / accumulation of GFP-FBP17 at the PM [2] | PM tension (estimated from tether force) (MDA-MB-231 cells [3])
1 | COC[C@@H]([C@H](O)[C@H](O)C(=O)NCC[C@H](C)c1nc(/C=C/C[C@@H]2O[C@]3(C[C@@H](O)[C@@H]2C)O[C@H]([C@H](C[C@H](O)[C@H](C)[C@H](O)[C@H](C)/C=C(C)/C(C)=C/C=C/C(C)=C\C#N)OC)[C@H](OP(=O)(O)O)C3(C)C)co1)N(C)C [calyculin A] | no effect | – | –
2 | methyl-β-cyclodextrin [MβCD] | significantly reduced | sufficient to prevent | increases

Reference: US20240167037A1, “CANCER THERAPY” (NATIONAL UNIVERSITY CORPORATION KOBE UNIVERSITY, priority 2021, published 2024)
